Columns and labels:
Bacteriorhodopsin (bR) = biological target: T1, Bacteriorhodopsin (bR) (Halobacterium salinarum, UniProt P02945); assay: Stabilization assay for bacteriorhodopsin (absorbance at 554 nm); conditions: room temperature, 20 days; 0.2 wt % OTG+0.8 wt % TFA or 1.0 wt % OTG only
T1 construct: extract bR from the native purple membrane; endogenous in cells
T1 sequence (P02945 14-261 limits assumed): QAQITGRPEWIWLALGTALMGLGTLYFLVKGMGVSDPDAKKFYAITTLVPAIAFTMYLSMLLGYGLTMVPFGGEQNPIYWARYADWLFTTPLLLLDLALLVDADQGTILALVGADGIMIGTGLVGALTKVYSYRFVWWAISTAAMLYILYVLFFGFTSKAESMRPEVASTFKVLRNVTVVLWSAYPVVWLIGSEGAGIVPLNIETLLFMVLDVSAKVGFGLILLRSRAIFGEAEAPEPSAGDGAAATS
Description: Bacteriorhodopsin (bR) has been widely employed for assessment of new amphiphiles because this membrane protein is readily available, and stability can be assessed via spectrophotometry (absorbance at 554 nm). Following standard protocols (Bazzacco et al., Biomacromolecules 2009, 10, 3317-3326), 2.0 wt % octyl-β-D-thioglucoside (OTG) was used to extract bR from the native purple membrane. After removal of insoluble debris via ultracentrifugation, the bR solution was diluted with amphiphile-containing solutions to generate samples containing 0.2 wt % OTG+0.8 wt % TFA. A control sample had OTG added to give a total of 1.0 wt %. […] Parallel studies were carried out at different amphiphile concentrations as described in Example 3 below. DDM is not efficient at bR extraction from the native membrane but extracted bR can be stable in the presence of DDM (Milder et al., Biochemistry 1991, 30, 1751-1761).
The general procedure was followed according to the reported protocol of Bazzacco et al. (Biomacromolecules 10, 3317-3326 (2009)). Frozen aliquots of purple membranes containing bR at 184 μM were thawed and solubilized by incubation with octylthioglucoside (OTG) for 24 hr at 4° C. in a dark room. For the solubilization, OTG (CMC=0.28 wt %) was used at 2.0 wt % in 10 mM sodium phosphate (pH 6.9). […] BR stability in each TFA solutions was monitored by measuring absorbance at 554 nm for 20 days.

[1] = stated in the bR protocol; cited from earlier work
LHI-RC superassembly = tested on: T2, LHI-RC superassembly; assay: Stabilization assay for R. capsulatus superassembly (A875/A680); parameters: species or system Rhodobacter capsulatus; conditions: room temperature, 20 days, CMC+0.04 wt %, relative to DDM
T2 construct: The LHI-RC superassembly was extracted from native membranes with 1.0 wt % DDM; made in house; host or cells: Rhodobacter capsulatus U43[pUHTM86Bgl]; (lacks LHII), photosynthetic membranes
From the text: The promising results with bR stabilization led to investigating a more challenging system, the photosynthetic superassembly formed by the light harvesting I (LHI) and reaction center (RC) complexes from Rhodobacter capsulatus (Laible et al., Biochemistry 2003, 42, 1718-1730). This superassembly contains 30-40 protein molecules (five different components), and maintenance of native quaternary structure can be assessed via spectrophotometry. The LHI-RC superassembly was extracted from native membranes with 1.0 wt % DDM and purified with DDM at its CMC (0.009 wt %). […]
Resin-retaining spin columns (e.g., emptied His SpinTrap™ columns; GE Healthcare) were inserted into a 2 mL microcentrifuge tube and the samples were then loaded onto the column. […] The protein was collected by eluting with two 0.25 mL elution buffer aliquots (this buffer was identical to binding buffer with the addition to 1 M of imidazole; the pH of each solution was checked and readjusted to pH=7.8). […]
UV-Vis spectra of these solutions were measured in regular intervals. FIG. 9 illustrates the time course of stability of R. capsulatus superassembly, evaluated at room temperature. […] Absorbance ratio (A875/A680) was followed for the stability evaluation of the membrane protein. […] FIG. 10 illustrates the absorbance spectrum of R. capsulatus superassembly in TFA-1 (a,c) and DDM (b,d) at room temperature (˜23° C.). […]

## CCCCCCCCS[C@@H]1O[C@H](CO)[C@@H](O)[C@H](O)[C@H]1O [OTG, octyl-β-D-thioglucoside, reference compound]
Bacteriorhodopsin (bR)
  bR stability over time: almost completely denatured by day 10
[1]
  CMC: 0.28 wt %

## CCCCCCCCCCCC[N+](C)(C)[O-] [lauryldimethylamine oxide]
LHI-RC superassembly
  stability of LHI-RC superassembly: rapid degradation of the superassembly

## CCCCCCCCO[C@@H]1O[C@H](CO)[C@@H](O)[C@H](O)[C@H]1O [octyl-glucoside]
LHI-RC superassembly
  stability of LHI-RC superassembly: rapid degradation of the superassembly
